Results: PubChem BioAssay AID248 (DTP/NCI, 2004)
“And” between values parts separate entries of the source, which are not always exact repeats. Equal values may be shown once. Inconclusive results and toxic doses are left out. No stated cut-off is given here; in the data, active means T/C of 150% or more; inactive means T/C below 125%.

Tested on: L1210 leukemia ip in BDF1 mice, survival T/C
Test: NCI In Vivo Anticancer Drug Screen. Data for tumor model L1210 Leukemia (intraperitoneal) in B6D2F1 (BDF1) mice
Details: endpoint: mean survival time, higher = longer survival
Outline: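 Each compound was tested against a transplantable tumor grown in mice. The endpoint was survival, with treated animals benchmarked against vehicle controls as a simple ratio.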

[1] = dose: 100.0 mg/kg/injection, schedule: Q01DX009 (ip), vehicle: Klucel (hydroxypropylcellulose) (HPC)
[2] = dose: 100.0 mg/kg/injection, schedule: Q04DX003 (ip), vehicle: Klucel (hydroxypropylcellulose) (HPC)
[3] = dose: 200.0 mg/kg/injection, schedule: Q01DX009 (ip), vehicle: Klucel (hydroxypropylcellulose) (HPC)
[4] = dose: 200.0 mg/kg/injection, schedule: Q04DX003 (ip), vehicle: Klucel (hydroxypropylcellulose) (HPC)
[5] = dose: 400.0 mg/kg/injection, schedule: Q01DX009 (ip), vehicle: Klucel (hydroxypropylcellulose) (HPC)
[6] = dose: 400.0 mg/kg/injection, schedule: Q04DX003 (ip), vehicle: Klucel (hydroxypropylcellulose) (HPC)
[7] = dose: 100.0 mg/kg/injection, schedule: Q01DX001 (ip), vehicle: saline with Tween-80
[8] = dose: 200.0 mg/kg/injection, schedule: Q01DX001 (ip), vehicle: saline with Tween-80
[9] = dose: 400.0 mg/kg/injection, schedule: Q01DX001 (ip), vehicle: saline with Tween-80
[10] = dose: 100.0 mg/kg/injection, schedule: Q01DX001 (ip), vehicle: saline
[11] = dose: 200.0 mg/kg/injection, schedule: Q01DX001 (ip), vehicle: saline
[12] = dose: 400.0 mg/kg/injection, schedule: Q01DX001 (ip), vehicle: saline
[13] = dose: 100.0 mg/kg/injection, schedule: Q04DX003 (ip), vehicle: saline with Tween-80
[14] = dose: 200.0 mg/kg/injection, schedule: Q04DX003 (ip), vehicle: saline with Tween-80
[15] = dose: 400.0 mg/kg/injection, schedule: Q04DX003 (ip), vehicle: saline with Tween-80
[16] = dose: 100.0 mg/kg/injection, schedule: Q04DX003 (ip), vehicle: saline
[17] = dose: 200.0 mg/kg/injection, schedule: Q04DX003 (ip), vehicle: saline
[18] = dose: 400.0 mg/kg/injection, schedule: Q04DX003 (ip), vehicle: saline

Measured: T/C

CCOc1ccccc1NC(=O)C1CCCCC1C(=O)O (configuration not stated)
inactive: dose: 100.0 mg/kg/injection, schedule: Q04DX002 (ip), vehicle: saline 96 % of control | dose: 200.0 mg/kg/injection, schedule: Q04DX002 (ip), vehicle: saline 112 % of control

O=C(Nc1ccccc1)NC(C(=O)O)(c1ccccc1)c1ccccc1
inactive: dose: 50.0 mg/kg/injection, schedule: Q01DX001 (ip), vehicle: other 97 % of control | dose: 100.0 mg/kg/injection, schedule: Q01DX001 (ip), vehicle: other 89 % of control | dose: 200.0 mg/kg/injection, schedule: Q01DX001 (ip), vehicle: other 92 % of control

O=C1NC(c2ccccc2)(c2ccccc2)C(=O)N1CN1CCN(CN2C(=O)NC(c3ccccc3)(c3ccccc3)C2=O)CC1
inactive: dose: 6.25 mg/kg/injection, schedule: Q01DX009 (ip), vehicle: saline sonified 99 % of control | dose: 12.5 mg/kg/injection, schedule: Q01DX009 (ip), vehicle: saline sonified 100 % of control | dose: 25.0 mg/kg/injection, schedule: Q01DX009 (ip), vehicle: saline sonified 94 % of control | dose: 100.0 mg/kg/injection, schedule: Q01DX001 (ip), vehicle: Klucel (hydroxypropylcellulose) (HPC) 108 % of control | dose: 200.0 mg/kg/injection, schedule: Q01DX001 (ip), vehicle: Klucel (hydroxypropylcellulose) (HPC) 92 % of control | dose: 400.0 mg/kg/injection, schedule: Q01DX001 (ip), vehicle: Klucel (hydroxypropylcellulose) (HPC) 92 % of control

Cc1ccc(OC(=O)/C=C/C(=O)Oc2ccc(C)cc2)cc1
inactive: [1] 97 % of control | [2] 105 % of control | [3] 95 % of control | [4] 98 % of control | [5] 88 % of control | [6] 108 % of control

CC(C)CCCc1c[nH]c(=O)[nH]c1=O
inactive: [1] 105 % of control | dose: 100.0 mg/kg/injection, schedule: Q04DX003 (ip), vehicle: other 103 % of control | [3] 97 % of control | dose: 200.0 mg/kg/injection, schedule: Q04DX003 (ip), vehicle: other 101 % of control | [5] 97 % of control | dose: 400.0 mg/kg/injection, schedule: Q04DX003 (ip), vehicle: other 117 % of control

Cn1c(=O)cc[nH]c1=O
inactive: [7] 95 % of control | [8] 98 % of control | [9] 106 % of control

O=C(OCC1OC(n2nnc3ccnc(Cl)c32)C(OC(=O)c2ccccc2)C1OC(=O)c1ccccc1)c1ccccc1 (configuration not stated)
inactive: dose: 50.0 mg/kg/injection, schedule: Q01DX005 (ip), vehicle: saline with Tween-80 93 % of control | dose: 100.0 mg/kg/injection, schedule: Q01DX005 (ip), vehicle: saline with Tween-80 98 % of control | dose: 200.0 mg/kg/injection, schedule: Q01DX005 (ip), vehicle: saline with Tween-80 104 % of control

COC1OC(CO)C(O)C(NC(=O)NCCCl)C1O (configuration not stated)
inactive: [10] 113 % of control | [11] 111 % of control | [12] 103 % of control

Cn1c(=O)cc(C=Nc2ccc(N=Nc3ccccc3)cc2)c2ccccc21
inactive: [10] 94 % of control | [11] 96 % of control | [12] 87 % of control

O=C(Nc1cccc2c(NC(=O)c3ccccc3)cccc12)c1ccccc1
inactive: [7] 92 % of control | [8] 91 % of control | [9] 89 % of control

COC1=C(O)C(C(O)CO)OC1=O (configuration not stated)
inactive: dose: 25.0 mg/kg/injection, schedule: Q01DX009 (ip), vehicle: water 103 % of control | dose: 50.0 mg/kg/injection, schedule: Q01DX009 (ip), vehicle: water 110 % of control | dose: 100.0 mg/kg/injection, schedule: Q01DX009 (ip), vehicle: water 117 % of control | dose: 200.0 mg/kg/injection, schedule: Q01DX009 (ip), vehicle: water 101 % of control | dose: 400.0 mg/kg/injection, schedule: Q01DX009 (ip), vehicle: water 108 % of control

C#CC(O)(c1ccccc1)c1cc(OC)c(OC)cc1OC (configuration not stated)
inactive: [13] 101 % of control | [14] 97 % of control | [15] 94 % of control

CCOC(=O)C1CCCNC1 (configuration not stated)
inactive: dose: 100.0 mg/kg/injection, schedule: Q01DX009 (ip), vehicle: saline 96 % of control | [16] 98 % of control | dose: 200.0 mg/kg/injection, schedule: Q01DX009 (ip), vehicle: saline 91 % of control | [17] 101 % of control | dose: 400.0 mg/kg/injection, schedule: Q01DX009 (ip), vehicle: saline 100 % of control | [18] 94 % of control

O=[N+]([O-])c1ccc(OP(=O)(N2CCCCC2)N2CCCCC2)cc1
inactive: dose: 25.0 mg/kg/injection, schedule: Q04DX002 (ip), vehicle: saline with Tween-80 93 % of control | dose: 50.0 mg/kg/injection, schedule: Q04DX002 (ip), vehicle: saline with Tween-80 101 % of control | dose: 100.0 mg/kg/injection, schedule: Q04DX002 (ip), vehicle: saline with Tween-80 93 % of control

Nc1nnnn1-c1ccc2ccccc2c1
inactive: [13] 101 % of control | [14] 97 % of control | [15] 101 % of control

NC(=O)c1ccccc1NC(=O)Nc1ccccc1F
inactive: [1] 105 % of control | [3] 107 % of control | [5] 100 % of control

CC1(C)C(=C(C#N)C#N)C(C)(C)C1=C(C#N)C#N
inactive: [10] 114 % of control | [11] 96 % of control | [12] 90 % of control

COC(=O)c1ccccc1NN=Nc1ccccc1[N+](=O)[O-]
inactive: [1] 93 % of control | [2] 97 % of control and 86 % of control | [3] 88 % of control | [4] 98 % of control and 89 % of control | [5] 97 % of control | [6] 95 % of control and 97 % of control

COC(=O)N1C2C=CC(=O)C(C=C2)N1C(=O)OC (configuration not stated)
inactive: dose: 75.0 mg/kg/injection, schedule: Q01DX001 (ip), vehicle: saline 106 % of control | dose: 150.0 mg/kg/injection, schedule: Q01DX001 (ip), vehicle: saline 106 % of control | dose: 300.0 mg/kg/injection, schedule: Q01DX001 (ip), vehicle: saline 109 % of control

Cc1ccc(C(=O)OCC2OC(Cl)CC2OC(=O)c2ccc(C)cc2)cc1 (configuration not stated)
inactive: dose: 50.0 mg/kg/injection, schedule: Q04DX003 (ip), vehicle: saline 107 % of control | [16] 102 % of control | [17] 91 % of control | [18] 98 % of control

SCc1c(Cl)c(Cl)c(Cl)c(Cl)c1Cl.[Hg]
inactive: [2] 93 % of control | [4] 91 % of control | [6] 93 % of control

Cc1sc2ccccc2[n+]1CCCCS(=O)(=O)O
inactive: [10] 92 % of control | [11] 97 % of control | [12] 97 % of control

CCCC(=O)N(C(=O)CCC)c1cc2c3c(c1)CCCN3CCC2
inactive: dose: 12.5 mg/kg/injection, schedule: Q04DX003 (ip), vehicle: Klucel (hydroxypropylcellulose) (HPC) 96 % of control | dose: 25.0 mg/kg/injection, schedule: Q01DX009 (ip), vehicle: Klucel (hydroxypropylcellulose) (HPC) 95 % of control | dose: 25.0 mg/kg/injection, schedule: Q04DX003 (ip), vehicle: Klucel (hydroxypropylcellulose) (HPC) 93 % of control | dose: 50.0 mg/kg/injection, schedule: Q01DX009 (ip), vehicle: Klucel (hydroxypropylcellulose) (HPC) 92 % of control | dose: 50.0 mg/kg/injection, schedule: Q04DX003 (ip), vehicle: Klucel (hydroxypropylcellulose) (HPC) 95 % of control | [16] 93 % of control

C=CC[P+](CC)(c1ccccc1)c1ccccc1
inactive: dose: 3.13 mg/kg/injection, schedule: Q01DX009 (ip), vehicle: saline 97 % of control

O=C(NC/C(Br)=C/Br)Nc1c2ccccc2nc2ccccc12
inactive: dose: 10.0 mg/kg/injection, schedule: Q01DX009 (ip), vehicle: Klucel (hydroxypropylcellulose) (HPC) 96 % of control | dose: 20.0 mg/kg/injection, schedule: Q01DX009 (ip), vehicle: Klucel (hydroxypropylcellulose) (HPC) 107 % of control | dose: 40.0 mg/kg/injection, schedule: Q01DX009 (ip), vehicle: Klucel (hydroxypropylcellulose) (HPC) 89 % of control | dose: 75.0 mg/kg/injection, schedule: Q01DX009 (ip), vehicle: Klucel (hydroxypropylcellulose) (HPC) 89 % of control | [2] 102 % of control | [4] 94 % of control | [6] 94 % of control
